# Experimental data from patent US8895579B2, “Heterotricyclic AMPA receptor antagonists for treatment of epilepsy, pain, and other neurological disorders and diseases” (Northwestern University, priority 2010, dated 2014).
# Entries after “also recorded” stand apart in the source; their conditions may differ.
# Key:
# [1] = molecular target: T1, kainate receptor EPSCs, CA3 pyramidal neurons (Mus musculus, UniProt P39087+Q61626+Q8BMF5); assay: Kainate receptor EPSCs at mossy fiber-CA3 synapses, acute hippocampal slices; format: cell-based; conditions: 20 μM
# T1 construct: whole-cell voltage clamp recording from mouse acute brain slices; from tissue; host or cells: acute hippocampal slices, P15-21 C57Bl/6 mice, CA3 pyramidal neurons
# Procedure: For recordings from acute hippocampal slices, brains from P15-21 C57Bl/6 mice were sliced transversely (350 μm thickness) in a sucrose slicing solution containing (in mM) 85 NACl, 2.5 KCl, 1.25 NaH2PO4, 25 NaHCO3, 25 glucose, 75 sucrose, 0.5 CaCl2, 4 MgCl2, 0.5 Na ascorbate, 10 μM DL-APV and 100 μM kynurenic acid (pH 7.3). After slicing, the solution was exchanged with an incubation solution containing (in mM) 125 NaCl, 2.4 KCl, 1.2 NaH2PO4, 25 NaHCO3, 25 glucose: 1 CaCl2, 2 MgCl2, 0.5 Na ascorbate, 10 μM DL-APV and 100 μM kynurenic acid (pH 7.3) that was bubbled continuously with CO2-balanced O2 (carbogen). […] Recordings in voltage clamp mode used the CsF/CsCl internal solution and carbogenated external recording solution containing (in mM) 120 NaCl, 2.4 KCl, 2 MgCl2, 1 CaCl2, 25 NaHCO3, 1.2 NaH2PO4, 25 glucose, 10 μM bicuculline methiodide, 50 μM PTX and 50 μM D-APV (pH 7.3). […] NMDA EPSCs were validated by addition of D-APV (50 μM) at the end of each recording. […] IKM compounds were applied for 10 minutes and changes in the peak amplitudes of excitatory post-synaptic currents (EPSCs) and paired-pulse ratios were analyzed during the last two minutes of drug application. EPSC charge transfer, AP frequency, paired-pulse ratio and EPSC peak amplitude were analyzed with Mini-Analysis v6.03 (Synaptosoft, Decatur, Ga.) and Clampfit v10.0 (MDS, Sunnyvale, Calif.) software.
# [2] = molecular target: T2, heteromeric GluA1/GluA2 AMPA receptor (Rattus norvegicus, UniProt P19490+P19491); assay: Whole-cell patch clamp of recombinant GluA1/GluA2 receptors in HEK293-T/17 cells; format: cell-based
# T2 construct: expressed in transfected cells; host or cells: HEK293-T/17 (CRL-11268)
# Procedure: (§1) Cell Culture and Transfection. Human embryonic kidney cells expressing T-antigen, clone 17 (HEK293-T/17) (CRL-11268) were cultured at 37° C. with 5% CO2 in DMEM, including 100 μg/mL penicillin, 100 μg/mL streptomycin, and 10% heat-inactivated fetal bovine serum. Cells were split twice per week. For transfection, HEK293-T/17 cells were plated at 3×10^4 cells/cm^2 for pharmacology experiments and 5×10^3 cells/cm^2 for physiology experiments in fresh medium 24 h prior to transfection. Cells were transfected with AMPA or KA receptor plasmid cDNAs using Mirus Trans-IT transfection reagent (Minus Bio Corporation, Madison, Wis.) at a ratio of 1 μg cDNA: 3 μL Trans-1T reagent and maintained in transfection medium overnight followed by a media change the next day. Transfected cells were maintained in this medium until the experiment was conducted (48-72 h total post transfection).
# Electrophysiology. For analysis of recombinant receptors, HEK293-T/17 cells were co-transfected with 0.2 μg of iGluR cDNA and 0.05 μg of eGFP. For heterologous GluA1/GluA2 receptors, the GluA1:GluA2 cDNA ratio was 1:6. Two to three days post-transfection, eGFP-expressing cells were lifted from the cover slip and voltage clamped in whole cell mode. The internal solution contained (in mM) 30 CsF, 110 CsCl, 10 HEPES, 4 NaCl, 5 EGTA and 0.5 CaCl2 (pH 7.3), while the extracellular solution contained (in mM) 140 NaCl, 10 glucose, 10 Cs-HEPES, 3 KCl, 2 CaCl2 and 1 MgCl2 (pH 7.3). Borosilicate patch electrodes were pulled and fire polished to 2-3 MO resistance. Lifted cells were maintained in a laminar stream of extracellular solution from a triple-barreled flow pipe, which was rapidly translated using a piezoceramic bimorph for fast application of glutamate or kainate alone or in combination with various antagonists (the 10-90% rise time of glutamate-evoked currents was ˜1 ms). IKM compounds were applied for three minutes with analysis performed on the final one minute of drug application.
# Statistical analysis. At least three separate experiments were performed for each assay. […]
# [3] = molecular target: T3, homomeric GluA3 AMPA receptor (Rattus norvegicus, UniProt P19492); assay: Whole-cell patch clamp of recombinant GluA3 receptors in HEK293-T/17 cells; format: cell-based; conditions: 30 μM; 10 mM glutamate
# T3 construct: expressed in transfected cells; host or cells: HEK293-T/17 (CRL-11268)
# Procedure: as §1
# (§2) Electrophysiology. For analysis of recombinant receptors, HEK293-T/17 cells were co-transfected with 0.2 μg of iGluR cDNA and 0.05 μg of eGFP. For heterologous GluA1/GluA2 receptors, the GluA1:GluA2 cDNA ratio was 1:6. Two to three days post-transfection, eGFP-expressing cells were lifted from the cover slip and voltage clamped in whole cell mode. […]
# [4] = molecular target: T4, homomeric GluA1 AMPA receptor (Rattus norvegicus, UniProt P19490); assay: Whole-cell patch clamp of recombinant GluA1 receptors in HEK293-T/17 cells; format: cell-based; conditions: 30 μM; 10 mM glutamate
# T4 construct: expressed in transfected cells; host or cells: HEK293-T/17 (CRL-11268)
# Procedure: as §1, §2
# [5] = tested on: mice; conditions: Ikoma et al., 2008; Oikawa et al., 2009 and unpublished observations; cited from earlier work
# T2 sequence (P19490 19-907 isoform P19490-2 limits assumed): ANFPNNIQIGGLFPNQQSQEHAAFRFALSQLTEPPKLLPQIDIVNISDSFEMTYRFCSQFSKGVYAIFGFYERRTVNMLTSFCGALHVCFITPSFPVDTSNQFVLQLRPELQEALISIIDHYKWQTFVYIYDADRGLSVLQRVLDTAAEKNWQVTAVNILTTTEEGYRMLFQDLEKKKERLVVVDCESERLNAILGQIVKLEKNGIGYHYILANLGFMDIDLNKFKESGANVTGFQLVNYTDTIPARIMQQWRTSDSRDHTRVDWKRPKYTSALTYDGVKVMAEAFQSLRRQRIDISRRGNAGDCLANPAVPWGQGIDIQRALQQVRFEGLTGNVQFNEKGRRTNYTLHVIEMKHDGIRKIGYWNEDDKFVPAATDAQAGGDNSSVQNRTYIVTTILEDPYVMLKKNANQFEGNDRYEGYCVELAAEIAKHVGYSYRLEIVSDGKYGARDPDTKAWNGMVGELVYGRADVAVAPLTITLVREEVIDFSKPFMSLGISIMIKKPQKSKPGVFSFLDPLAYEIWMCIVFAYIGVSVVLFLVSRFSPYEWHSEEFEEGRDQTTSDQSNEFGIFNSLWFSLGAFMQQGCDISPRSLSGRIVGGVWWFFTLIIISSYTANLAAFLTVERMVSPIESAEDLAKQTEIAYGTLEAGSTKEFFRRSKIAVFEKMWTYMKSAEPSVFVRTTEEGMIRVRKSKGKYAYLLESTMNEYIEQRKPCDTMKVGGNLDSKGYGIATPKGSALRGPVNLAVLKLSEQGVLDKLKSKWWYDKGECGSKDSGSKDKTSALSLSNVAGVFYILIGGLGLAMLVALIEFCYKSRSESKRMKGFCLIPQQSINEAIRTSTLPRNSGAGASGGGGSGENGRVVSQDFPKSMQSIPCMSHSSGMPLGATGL
# T2 sequence (P19491 22-883 isoform P19491-2 limits assumed): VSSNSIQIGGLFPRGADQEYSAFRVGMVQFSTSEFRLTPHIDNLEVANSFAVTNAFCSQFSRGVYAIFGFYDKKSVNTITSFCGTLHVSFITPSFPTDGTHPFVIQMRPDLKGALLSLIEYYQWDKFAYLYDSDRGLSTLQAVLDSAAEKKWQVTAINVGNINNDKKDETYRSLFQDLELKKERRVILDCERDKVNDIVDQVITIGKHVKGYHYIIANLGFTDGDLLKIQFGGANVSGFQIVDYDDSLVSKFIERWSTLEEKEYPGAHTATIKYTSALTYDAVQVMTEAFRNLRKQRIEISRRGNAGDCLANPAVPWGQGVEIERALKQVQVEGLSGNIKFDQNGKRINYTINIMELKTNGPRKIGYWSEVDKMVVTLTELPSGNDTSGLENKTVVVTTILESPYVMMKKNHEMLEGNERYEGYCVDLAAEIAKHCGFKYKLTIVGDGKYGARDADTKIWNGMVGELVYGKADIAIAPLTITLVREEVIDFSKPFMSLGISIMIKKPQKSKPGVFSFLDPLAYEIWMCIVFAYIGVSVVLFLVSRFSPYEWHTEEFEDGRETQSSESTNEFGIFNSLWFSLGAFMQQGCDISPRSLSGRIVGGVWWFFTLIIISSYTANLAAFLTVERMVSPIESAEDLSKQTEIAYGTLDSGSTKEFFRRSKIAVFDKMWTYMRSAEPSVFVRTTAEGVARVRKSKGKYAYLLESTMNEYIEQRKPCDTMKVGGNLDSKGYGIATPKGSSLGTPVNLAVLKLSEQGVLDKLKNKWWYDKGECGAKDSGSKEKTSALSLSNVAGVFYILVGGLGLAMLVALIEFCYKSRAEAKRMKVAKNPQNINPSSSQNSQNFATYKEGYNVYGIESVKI
# T3 sequence (P19492 23-888 isoform P19492-2 limits assumed): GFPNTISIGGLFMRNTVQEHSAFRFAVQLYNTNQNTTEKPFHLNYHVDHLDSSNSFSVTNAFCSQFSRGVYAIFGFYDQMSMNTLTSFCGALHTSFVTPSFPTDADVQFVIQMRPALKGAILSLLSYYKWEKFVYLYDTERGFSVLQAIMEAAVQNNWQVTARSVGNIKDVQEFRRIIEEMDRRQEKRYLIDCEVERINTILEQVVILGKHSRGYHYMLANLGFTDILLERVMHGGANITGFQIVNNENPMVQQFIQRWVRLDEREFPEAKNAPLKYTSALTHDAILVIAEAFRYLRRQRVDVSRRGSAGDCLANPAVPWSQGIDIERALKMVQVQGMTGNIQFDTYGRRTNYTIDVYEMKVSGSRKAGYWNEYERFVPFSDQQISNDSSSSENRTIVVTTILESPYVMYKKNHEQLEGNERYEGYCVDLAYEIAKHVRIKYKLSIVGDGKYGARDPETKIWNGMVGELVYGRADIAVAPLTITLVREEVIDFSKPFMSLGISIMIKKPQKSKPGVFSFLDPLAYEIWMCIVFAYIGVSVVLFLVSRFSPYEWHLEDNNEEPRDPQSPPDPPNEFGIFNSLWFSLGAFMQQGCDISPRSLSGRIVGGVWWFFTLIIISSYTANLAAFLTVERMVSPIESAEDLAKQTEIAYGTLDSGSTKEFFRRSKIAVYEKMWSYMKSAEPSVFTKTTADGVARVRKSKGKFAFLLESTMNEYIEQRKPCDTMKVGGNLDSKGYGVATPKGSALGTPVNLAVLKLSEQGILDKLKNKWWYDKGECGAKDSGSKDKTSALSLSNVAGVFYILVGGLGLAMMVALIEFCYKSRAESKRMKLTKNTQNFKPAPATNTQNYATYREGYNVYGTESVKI
# T4 sequence (P19490 19-907 isoform P19490-2 limits assumed): as the sequence (P19490 19-907 isoform P19490-2 limits assumed) above
structure (smiles),measurement,setting,value
O=C(O)C[C@@]12O[C@H]3C=CCN[C@H]3C1CN[C@H]2C(=O)O (some centres unmarked) [IKM-159],effect on kainate receptor EPSC peak amplitude,[1],did not alter the mean amplitude; also recorded: did not alter the typical run-down in amplitude
same,IC50,[2],26 ± 2 µM
same,GluA1/GluA2 peak amplitude as percent of basal peak amplitude,"[2]; 30 μM, 10 mM glutamate",56±5%
same,reduction in GluA1/GluA2 peak current amplitude,"[2]; 30 μM, 10 mM glutamate",44±5%
same,GluA3 peak amplitude as percent of basal peak amplitude,[3],83±2%
same,reduction in GluA3 peak current amplitude,[3],17±2%
same,GluA1 peak amplitude as percent of basal (glutamate alone) peak,[4],92±3%
same,behavioral phenotype in mice,[5],hypoactive phenotypes similar to cataleptic states; also recorded: marked hypoactivity and immobility
